Consider 5 molecules from patent US20120244074A1, “LABELLED INTEGRIN BINDERS” (priority 2009, published 2012).

The subject of test [1] is lung adenocarcinoma cell line H2009. As to the kind of experiment: Flow cytometry evaluation of binding on H2009 cells. Format: cell-based. As to conditions: 100 nM, incubation time 1 h at 37° C. The text has this: Binding of imaging agent 7 (prepared as described in Example 9) was studied using flow cytometric analysis (Beckman Coulter FC500 MPL) on lung adenocarcinoma cell line H2009 (Cancer Res; 67: 5889-5895).
A general note: In flow cytometry, cells or beads pass a laser one at a time.

The target of the next test is T1, integrin receptors αvβ3 (Homo sapiens, UniProt P05106+P06756).
T1 construct: membrane fractions prepared from human endothelial adenocarcinoma cell line EA-Hy 926; endogenous in cells; host or cells: EA-Hy 926 (human endothelial cell line), membrane fractions
In words: In vitro affinity assessment αvβ3: competition with radiolabelled Echistatin on membrane fractions of EA-Hy 926. It is filed as binding. As to conditions: for competing out binding of the radiolabelled Echistatin: highest concentration tested 144 μM, FIG. 1. As to the method:
Affinity for integrin receptors αvβ3 was measured by competition experiments with [[…]]-Echistatin on membrane fractions prepared from human endothelial adenocarcinoma cell line EA-Hy 926 using a homogenizer and isolated by ultracentrifugation. Dilutions of test compounds were mixed with the radiotracer and membrane fraction prior to incubation for 1 h at 37° C. After a washing procedure the membranes were harvested on a filter using Skatron micro harvester. The filter spots were finally excised and counted in a Packard γ-counter. The Kd of [[…]]-Echistatin was calculated using Prism software. […] The compounds tested were EMD527040 (benchmark), the cPn216-chelated compound of Example 2(viii) and the tetraamine-chelated compound of Example 3(ii).

As to “1-(Cy5**-amido)-45-(3,5-dichlorophenyl)-39,43-dioxo-42-(5-(pyridin-2-ylamino)pentanamido)-3,6,9,12,15,18,21,24,27,30,33,36-dodecaoxa-40,44-diazaheptatetracontan-47-oic acid [imaging agent 7]”, the “positive uptake, share of the cells” value in test [1] is recorded as “around 40%”.

For `O=C(O)CC(NC(=O)[C@H](COCc1ccccc1)NC(=O)CCCCNc1ccccn1)c1cc(Cl)cc(Cl)c1` (some centres unmarked) [EMD527040, reference compound], the “competing out binding of the radiolabelled Echistatin” value (“competing out binding” below) at integrin receptors αvβ3 is given as “not possible to compete out binding of the radiolabelled Echistatin completely”.

`C/C(=N/O)C(C)(C)NCCC(CCNC(=O)CCCC(=O)NC[C@H](NC(=O)CCCCNc1ccccn1)C(=O)NC(CC(=O)O)c1cc(Cl)cc(Cl)c1)CCNC(C)(C)/C(C)=N\O` (stereo partly drawn) [Example 2(viii), (6S,Z)-3-(3,5-dichlorophenyl)-22-(hydroxyimino)-17-(2-(((Z)-3-(hydroxyimino)-2-methylbutan-2-yl)amino)ethyl)-21,21-dimethyl-5,9,13-trioxo-6-(5-(pyridin-2-ylamino)pentanamido)-4,8,14,20-tetraazatricosan-1-oic acid]: the “competing out binding” value at integrin receptors αvβ3 is on record as “not possible to compete out binding of the radiolabelled Echistatin completely”.

With `NCCNCC(CNCCN)CC(=O)NC[C@H](NC(=O)CCCCNc1ccccn1)C(=O)NC(CC(=O)O)c1cc(Cl)cc(Cl)c1` (stereo partly drawn) [Example 3(ii), 3-((S)-3-(4-(2-Aminoethylamino)-3-((2-aminoethylamino)methyl)butanamido)-2-(5-(pyridin-2-ylamino)pentanamido)propanamido)-3-(3,5-dichlorophenyl)propanoic acid], the “competing out binding” value on integrin receptors αvβ3 is on record as “not possible to compete out binding of the radiolabelled Echistatin completely”.

As a reminder, the Ki is a dissociation constant, usually derived from enzyme kinetics or from competition with a known ligand. A high value points to weaker binding. In turn, Echistatin [reference compound] came in with a Ki at integrin receptors αvβ3 (competition with [^115I]-Echistatin, EA-Hy 926 membrane fraction, 1 h at 37° C.) of 0.14 nM.
